One molecule from patent US20090130229A1, “Antitumor uses of compound” (Cell Therapeutics, Inc., priority 2002, published 2009) can be followed below.

In experiment [1] the target is T1, Ret/MEN2A(C634W) (Homo sapiens, UniProt P07949, C634W).
T1 construct: endogenous in cells; host or cells: TT (human medullary thyroid carcinoma)
The experiment can be described thus: Ret autophosphorylation and expression in TT cells (Western blotting). Format: cell-based. The conditions noted are these: 24 h. As to the method: FIG. 2. Effects of Cpd1 on human MTC cell lines harboring MEN2-associated RET mutants. A) Inhibition of Ret autophosphorylation. TT and MZ-CRC-1 cells, expressing respectively RET/MEN2A(C634W) and RET/MEN2B(M918T), were treated with the indicated concentrations of Cpd1, for 24 h. Control cells (C) received the solvent. Whole cell extracts were processed for Western blotting and probed with anti-pTyr and anti-Ret antibodies. […] B) Antiproliferative effect. TT and MZ-CRC-1 cells were treated with increasing concentrations of Cpd 1 for 7 days and then counted with a Coulter Counter.
(§1) The following human medullary thyroid carcinoma (MTC) cell lines were used in this study. The TT cell line derived from a MEN2A-associated MTC characterized by expression of the RET oncogene carrying the mutation C634W. […]
(§2) For whole-cell extract preparation, cells were lysed in sodium dodecyl sulfate (SDS) sample buffer (62.5 mM Tris-HCl (pH 6.8), 2% SDS) with 1 mM PMSF, 10 μg/ml pepstatin, 12.5 μg/ml leupeptin, 100 KIU aprotinin, 1 mM sodium orthovanadate, 1 mM sodium molybdate. Protein concentration was determined in appropriately diluted aliquots by the bicinchionic acid (BCA) method (Pierce, Rockford, Ill.), then samples were adjusted to a final concentration of 10% glycerol, 5% β-mercaptoethanol, 0.001% bromophenol blue. […]
In general terms: A western blot detects proteins with antibodies after separation by electrophoresis.

In experiment [2] the test system is NIH3T3^MEN2A(C634R) cells. The experiment in a line: Antiproliferative assay (Coulter Counter), NIH3T3 MEN2A(C634R) versus parental NIH3T3. Format: cell-based, murine. The conditions noted are these: 72 h, dose-response curves. As to the method:
FIG. 1. Effects of Cpd 1 on NIH3T3^MEN2A(C634R) transfectants expressing exogenous RET/MEN2A(C634R). […] Cells were exposed to 6 μM Cpd1 for 24 h and then photographed under a phase-contrast microscope (original magnification ×100). B) Antiproliferative effect. NIH3T3^MEN2A(C634R) cells and the parental NIH3T3 cells were treated with increasing concentrations of the drug for 72 h and then counted with a Coulter Counter. […] C) Inhibition of Ret/MEN2A(C634R) autophosphorylation and expression. Cells were treated with solvent (−) or 10 μM Cpd1 (+), for the indicated times. Whole cell-lysates were prepared and subjected to SDS-PAGE and Western blotting with anti-pTyr antibody. After stripping, the filter was reblotted with anti-Ret antibody. Arrows indicate the partial and fully glycosilated forms of the Ret/MEN2A receptor.
Cells were trypsinized after 3 days (NIH3T3 and NIH3T3 M12A cells) or 7 days (MTC cells) of treatment with Cpd1 and counted by a Coulter Counter (Coulter Electronics, Luton U.K.). The concentrations able to inhibit cell proliferation by 50% (IC50) were calculated from the dose-response curves. Each experiment was performed in duplicate

Experiment [3] has as its target T2, FGF-R1 (Mus musculus, UniProt P16092).
T2 construct: endogenous in cells; host or cells: Swiss3T3 (mouse fibroblasts)
The experiment can be described thus: FGF-R1 autophosphorylation and expression in Swiss3T3 cells. Format: cell-based. The conditions noted are these: 18 h. As to the method:
FIG. 6. Inhibition of autophosphorylation and expression of FGF-R1 and FGF-R3 receptors in whole cells by Cpd1. A): Swiss3T3 cells were serum starved for 24 h and then treated with Cpd1 at the indicated concentrations, for 18 h. After stimulation with 100 ng/ml FGF for 5 min, whole cell lysates were prepared and subjected to Western blotting with anti-pTyr or anti-FGF-R1. Protein loading by anti-actin blot is shown. B): NIH3T3 transformed by the FGF-R3 mutant Y373C were treated with the indicated concentrations, for 72 h. Cell extracts were immunoprecipitated with anti-FGF-R3 and then subjected to Western blotting with anti p-Tyr or anti-FGF-R3.
as §1, §2

Each structure is given as a SMILES string.

T2 sequence (P16092 22-822): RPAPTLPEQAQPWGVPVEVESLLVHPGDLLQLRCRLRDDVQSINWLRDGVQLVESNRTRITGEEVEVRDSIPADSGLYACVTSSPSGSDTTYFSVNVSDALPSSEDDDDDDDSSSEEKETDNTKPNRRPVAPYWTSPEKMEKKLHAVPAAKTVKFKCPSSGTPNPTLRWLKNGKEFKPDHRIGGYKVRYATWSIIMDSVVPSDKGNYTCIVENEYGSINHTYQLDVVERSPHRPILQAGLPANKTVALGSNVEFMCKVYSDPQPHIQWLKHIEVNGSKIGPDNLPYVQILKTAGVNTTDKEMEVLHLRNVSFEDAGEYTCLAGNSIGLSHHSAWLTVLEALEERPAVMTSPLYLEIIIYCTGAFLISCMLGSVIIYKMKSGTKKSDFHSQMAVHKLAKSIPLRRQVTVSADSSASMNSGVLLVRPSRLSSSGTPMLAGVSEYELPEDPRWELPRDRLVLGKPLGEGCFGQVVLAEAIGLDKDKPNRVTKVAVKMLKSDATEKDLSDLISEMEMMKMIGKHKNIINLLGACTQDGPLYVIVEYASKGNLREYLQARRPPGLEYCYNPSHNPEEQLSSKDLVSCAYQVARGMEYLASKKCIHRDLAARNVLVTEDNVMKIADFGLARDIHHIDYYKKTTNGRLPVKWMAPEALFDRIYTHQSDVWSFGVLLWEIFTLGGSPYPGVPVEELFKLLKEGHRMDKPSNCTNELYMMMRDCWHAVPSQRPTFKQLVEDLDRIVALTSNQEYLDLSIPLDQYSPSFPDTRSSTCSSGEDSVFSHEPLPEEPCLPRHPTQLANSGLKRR
T1 sequence (P07949 29-1114 C634W): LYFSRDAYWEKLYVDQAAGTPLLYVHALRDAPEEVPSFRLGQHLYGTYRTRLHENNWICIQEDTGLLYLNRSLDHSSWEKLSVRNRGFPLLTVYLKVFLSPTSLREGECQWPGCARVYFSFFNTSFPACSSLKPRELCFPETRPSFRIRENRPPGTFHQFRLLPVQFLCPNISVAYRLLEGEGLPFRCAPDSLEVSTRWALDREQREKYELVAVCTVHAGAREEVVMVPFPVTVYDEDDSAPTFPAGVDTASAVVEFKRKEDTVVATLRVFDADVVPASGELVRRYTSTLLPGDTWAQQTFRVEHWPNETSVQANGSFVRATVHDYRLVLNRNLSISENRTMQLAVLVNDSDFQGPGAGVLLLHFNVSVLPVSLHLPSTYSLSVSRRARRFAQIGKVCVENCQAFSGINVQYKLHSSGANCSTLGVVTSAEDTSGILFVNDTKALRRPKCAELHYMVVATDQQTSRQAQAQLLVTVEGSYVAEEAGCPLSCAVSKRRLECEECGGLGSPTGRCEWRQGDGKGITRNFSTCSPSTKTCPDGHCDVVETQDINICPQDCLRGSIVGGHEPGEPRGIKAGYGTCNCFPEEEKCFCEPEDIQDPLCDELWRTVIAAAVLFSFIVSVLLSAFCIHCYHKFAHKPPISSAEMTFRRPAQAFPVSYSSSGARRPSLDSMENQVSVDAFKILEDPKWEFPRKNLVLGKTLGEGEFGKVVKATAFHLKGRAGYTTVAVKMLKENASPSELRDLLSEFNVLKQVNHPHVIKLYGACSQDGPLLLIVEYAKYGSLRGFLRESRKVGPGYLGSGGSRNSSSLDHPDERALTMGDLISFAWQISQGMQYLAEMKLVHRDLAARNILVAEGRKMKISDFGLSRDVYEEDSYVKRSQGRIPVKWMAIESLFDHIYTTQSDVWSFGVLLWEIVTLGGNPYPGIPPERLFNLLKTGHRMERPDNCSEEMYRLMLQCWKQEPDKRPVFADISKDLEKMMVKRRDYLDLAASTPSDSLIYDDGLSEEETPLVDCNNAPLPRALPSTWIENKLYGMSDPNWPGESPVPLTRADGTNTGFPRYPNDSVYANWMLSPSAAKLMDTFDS

Consider `COc1cc2c(cc1OC)/C(=C\c1ccc(O)cc1)C(=O)N2` [Cpd 1, (E)-1,3-dihydro-5,6-dimethoxy-3-[(4-hydroxyphenyl)methylene]-2H-indol-2-one], for which the “Tyrosine phosphorylation of Ret receptor” value in experiment [1] is listed as “dose-dependent inhibition”. Also, in experiment [1] (highest concentrations), the Ret receptor expression entry was “reduced expression”. Besides, in experiment [2], the “Antiproliferative effect, sensitivity relative to parental NIH3T3 cells” value is “higher sensitivity”. In addition, the FGF-R1 tyrosine phosphorylation result in experiment [3] (Swiss3T3 cells serum starved, 100 ng/ml FGF 5 min) is recorded as “dose-dependent inhibition”. The FGF-R1 expression entry in experiment [3] (Swiss3T3 cells) is “dose-dependent inhibition”.
